System: 292921-168-R-J2-PDC KRAS tumor spheroid viability
Assay: Anticancer human tumor 292921-168-R-J2-PDC patient-derived pancreatic carcinoma cell line growth inhibition [KRAS2]
Settings: spheroids with HUVEC and MSC; for IC50: curve of first compound; for viability, T/C: stronger effect = lower value
Description: Multicellular complex tumor spheroid response to RAS pathway inhibitors in combination with a targeted agents in patient-derived cell lines with oncogenic KRAS variants from multiple cancer types
A high-throughput screen of multi-cell type tumor spheroids was designed to identify active combinations of targeted small molecules and KRAS pathway inhibitors. Complex spheroids include a stromal component modeled by human endothelial cells (HUVEC) and fibroblasts modeled by human mesenchymal stem cells (MSCs). The concentration ranges selected for each drug and investigational agent were based upon clinically achievable concentrations if the clinical Cmax of the agent was known.
Compounds. The drugs and investigational agents: BI-3406 (NSC825286), BAY-293 (NSC824723), batoprotafib (TNO155; NSC825523), sotorasib (AMG 510; NSC818433), MRTX1257 (NSC819558), elimusertib (BAY 1895344; NSC800525), molibresib (GSK525762; NSC774829), temuterkib (LY3214996; NSC803410), venetoclax (NSC766270), alisertib (NSC759677), olaparib (NSC753686), talazoparib (NSC767125), erdafitinib (NSC781556), ipatasertib (NSC767898), cabozantinib (NSC761068), nintedanib (NSC756659), abemaciclib (NSC768073), docetaxel (NSC628503), trametinib (NSC758246), and sapanisertib (NSC764658) were obtained from the National Cancer Institute (NCI) Developmental Therapeutics Program Chemical Repository. The FDA-approved anticancer drug set is available from the Developmental Therapeutics Program. […] The stock solutions were prepared in dimethyl sulfoxide (DMSO, Sigma-Aldrich, St. Louis, MO, cat. D2650) at 800-fold the tested concentration and stored at -70 degrees C prior to their use. All drugs and investigational agents were tested over a range starting from a high concentration at or near the clinical Cmax and decreasing in half-log increments. If the clinical Cmax for an agent had not been determined, the highest concentration tested was 10 microM.
Cell Culture. All cells were maintained in an incubator at 37 degrees C and 5% CO2 with 95% humidity. The PDC lines were cultured according to standard operating procedures established by the NCI PDMR (https://pdmr.cancer.gov/sops/default.htm). Briefly, all PDCs were thawed and cultured in Matrigel-coated flasks prepared with a working solution of 1X Ham's F-12 nutrient mix, without supplementation (Invitrogen, Waltham, MA, cat. 11765054), 100 U/mL penicillin-streptomycin (Invitrogen, cat. 15140122), and 2.5% Matrigel (Corning Inc., Corning, NY, cat. 354248) for the first three passages. All PDCs were cultured in complete DMEM/F-12 media containing advanced DMEM/F-12 (Invitrogen, cat. 12634028), 4.9% defined fetal bovine serum, heat inactivated (HyClone Laboratories Inc., Logan, UT, cat. SH30070.03HI), 389 ng/mL hydrocortisone (Sigma-Aldrich, cat. H4001), 9.7 ng/mL human EGF recombinant protein (Invitrogen, cat. PHG0313), 23.4 microg/mL adenine (Sigma-Aldrich, cat. A2786), 97.3 U/mL penicillin-streptomycin (Invitrogen, cat. 15140122), 1.9 mM L-glutamine (Invitrogen, cat. 25030081), and 9.7 microM Y-27632 dihydrochloride (Tocris Bioscience, Bristol, United Kingdom, cat. 1254). The PDCs were cultured in complete DMEM/F12 media without 9.7 microM Y-27632 dihydrochloride for at least two passages prior to the screen. The established cell line HOP-62 was cultured in RPMI 1640 medium, HEPES (Invitrogen, cat. 22400105) with 10% defined fetal bovine serum (HyClone Laboratories Inc., cat. SH30070.03) and 2 mM L-glutamine (Invitrogen, cat. 25030081). The pooled donor HUVEC were cultured in endothelial cell growth medium 2 (PromoCell, Heidelberg, Germany, cat. C-22011) and the hMSC were cultured in mesenchymal stem cell growth medium 2 (PromoCell, cat. C-28009). For all experiments, HUVEC and hMSC were used at passages </=5, while the malignant cell lines were used at passages </=15. […]

[1] = second compound 0.1 µM, first compound 0.0316 µM
[2] = second compound 0.1 µM, first compound 0.1 µM
[3] = second compound 0.316 µM, first compound 0.0316 µM
[4] = second compound 0.316 µM, first compound 0.1 µM
[5] = second compound 1 µM, first compound 0.0316 µM
[6] = second compound 1 µM, first compound 0.1 µM
[7] = second compound 3.16 µM, first compound 0.0316 µM
[8] = second compound 3.16 µM, first compound 0.1 µM
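Also: drug exposure lasted seven days after spheroids formed for three days.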
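For viability, T/C in this document: percent of DMSO vehicle control viability which is 100%.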

COC(=O)c1ccc2c(C(=Nc3ccc(N(C)C(=O)CN4CCN(C)CC4)cc3)c3ccccc3)c(O)[nH]c2c1 + CNCc1ccccc1-c1csc(C(C)Nc2nc(C)nc3cc(OC)c(OC)cc23)c1
IC50 (second compound 0.1 µM): 538 nM | IC50 (second compound 0.316 µM): 516 nM | IC50 (second compound 1 µM): 407 nM | IC50 (second compound 3.16 µM): < 31.6 nM | IC50 (second compound 10 µM): < 31.6 nM | viability, T/C [1]: 101% | viability, T/C [2]: 92.9% | viability, T/C (second compound 0.1 µM, first compound 0.316 µM): 64.5% | viability, T/C (second compound 0.1 µM, first compound 1 µM): 31.9% | viability, T/C (second compound 0.1 µM, first compound 3.16 µM): 10.4% | viability, T/C (second compound 0.1 µM, first compound 10 µM): 0.5% | viability, T/C [3]: 90.5% | viability, T/C [4]: 88.1% | viability, T/C (second compound 0.316 µM, first compound 0.316 µM): 64.2% | viability, T/C (second compound 0.316 µM, first compound 1 µM): 28.8% | viability, T/C (second compound 0.316 µM, first compound 3.16 µM): 13.5% | viability, T/C (second compound 0.316 µM, first compound 10 µM): 0.68% | viability, T/C [5]: 106% | viability, T/C [6]: 88.3% | viability, T/C (second compound 1 µM, first compound 0.316 µM): 52.5% | viability, T/C (second compound 1 µM, first compound 1 µM): 32.1% | viability, T/C (second compound 1 µM, first compound 3.16 µM): 4.65% | viability, T/C (second compound 1 µM, first compound 10 µM): 0.52% | viability, T/C [7]: 0.14% | viability, T/C [8]: 0.23% | viability, T/C (second compound 3.16 µM, first compound 0.316 µM): 0.19% | viability, T/C (second compound 3.16 µM, first compound 1 µM): 0.33% | viability, T/C (second compound 3.16 µM, first compound 3.16 µM): 0.3% | viability, T/C (second compound 3.16 µM, first compound 10 µM): 0.68% | viability, T/C (second compound 10 µM, first compound 0.0316 µM): 0.2% | viability, T/C (second compound 10 µM, first compound 0.1 µM): 0.22% | viability, T/C (second compound 10 µM, first compound 0.316 µM): 0.19% | viability, T/C (second compound 10 µM, first compound 1 µM): 0.16% | viability, T/C (second compound 10 µM, first compound 3.16 µM): 0.13% | viability, T/C (second compound 10 µM, first compound 10 µM): 0.35%

CN(C)C/C=C/C(=O)Nc1cc2c(Nc3ccc(F)c(Cl)c3)ncnc2cc1O[C@H]1CCOC1 + C=CC(=O)N1CCN(c2nc(OCC3CCCN3C)nc3c2CCN(c2cccc4cccc(C)c24)C3)CC1CC#N
IC50 (second compound 0.0316 µM): > 100 nM | IC50 (second compound 0.1 µM): > 100 nM | IC50 (second compound 0.316 µM): > 100 nM | IC50 (second compound 1 µM): 9.38 nM | IC50 (second compound 3.16 µM): < 0.316 nM | viability, T/C (second compound 0.0316 µM, first compound 0.000316 µM): 110% | viability, T/C (second compound 0.0316 µM, first compound 0.001 µM): 97.6% | viability, T/C (second compound 0.0316 µM, first compound 0.00316 µM): 89.9% | viability, T/C (second compound 0.0316 µM, first compound 0.01 µM): 85.3% | viability, T/C (second compound 0.0316 µM, first compound 0.0316 µM): 76.9% | viability, T/C (second compound 0.0316 µM, first compound 0.1 µM): 71.9% | viability, T/C (second compound 0.1 µM, first compound 0.000316 µM): 99.2% | viability, T/C (second compound 0.1 µM, first compound 0.001 µM): 98.1% | viability, T/C (second compound 0.1 µM, first compound 0.00316 µM): 85.3% | viability, T/C (second compound 0.1 µM, first compound 0.01 µM): 84.8% | viability, T/C [1]: 71.4% | viability, T/C [2]: 68.2% | viability, T/C (second compound 0.316 µM, first compound 0.000316 µM): 77.3% | viability, T/C (second compound 0.316 µM, first compound 0.001 µM): 85.3% | viability, T/C (second compound 0.316 µM, first compound 0.00316 µM): 64.7% | viability, T/C (second compound 0.316 µM, first compound 0.01 µM): 60.5% | viability, T/C [3]: 61.6% | viability, T/C [4]: 49.3% | viability, T/C (second compound 1 µM, first compound 0.000316 µM): 56.8% | viability, T/C (second compound 1 µM, first compound 0.001 µM): 60% | viability, T/C (second compound 1 µM, first compound 0.00316 µM): 50.3% | viability, T/C (second compound 1 µM, first compound 0.01 µM): 49.5% | viability, T/C [5]: 45.5% | viability, T/C [6]: 34.8% | viability, T/C (second compound 3.16 µM, first compound 0.000316 µM): 0.73% | viability, T/C (second compound 3.16 µM, first compound 0.001 µM): 1.26% | viability, T/C (second compound 3.16 µM, first compound 0.00316 µM): 0.25% | viability, T/C (second compound 3.16 µM, first compound 0.01 µM): 0.27% | viability, T/C [7]: 0.43% | viability, T/C [8]: 0.2%
